Key:
YES1 kinase = YES1 kinase (Homo sapiens, UniProt P07947); assay: YES1 kinase inhibition, ADP Glo assay (Promega); type: biochemical; conditions: for inhibition at 0.01 µM: compound 10 nM, read-out: YES1 enzyme, % inhibition, 10 nM; for inhibition at 0.1 µM: compound 100 nM, read-out: YES1 enzyme, % inhibition, 100 nM
Experimental: To evaluate the inhibitory activity against YES1 kinase of the compound according to the present invention, ADP Glo assay (Promega) was used, and the following method was performed with reference to the Promega kinase enzyme system protocol. To proceed with the experiment, buffers A-F and compound dilution plates were required.
To prepare A.4X reaction buffer, 800 μl of 5X reaction buffer and 200 μl of distilled water were used. To prepare B.4X kinase buffer, 996.6 μl of A.4X reaction buffer, 2 μl of 0.1M DTT, and 3.2 μl of 2.5M MnCl2 were added and mixed. To prepare C.1X kinase buffer (containing 5% DMSO) used for compound dilution, 250 μl of B.4X kinase buffer, 700 μl of distilled water, and 50 μl of DMSO were added, so that the final DMSO concentration became 5%. Then, 10 mM compounds were diluted 100-fold to prepare 100 μM solutions, and then D.5X inhibitor solution was prepared so that the compound concentration became 5 uM. Using a 96-well plate, 5 μM compounds were 3-fold diluted using C.1X kinase buffer (containing 5% DMSO) to prepare compound plates with concentrations ranging from 0.25 μM to 5 μM. The resulting plates were stored at room temperature. To prepare E. 2.5X ATP/substrate mixture, 50 μl of B.4X kinase buffer, 50 μl of […], and 100 μl of substrate were mixed. To prepare F YES1 kinase enzyme solution, 35 μl of B.4X kinase buffer, 0.4 μl of YES1 enzyme, and 104.6 μl of distilled water were used. Once the diluted compound plates, ATP/substrate mixture, and YES1 kinase solution were all prepared, 3 μL each was transferred from the diluted compound plate to a luciferase 96-well white plate (Since the total volume of the ATP/substrate and YES1 kinase solution that reacts with the compound is 15 μL, the compounds were diluted 5-fold, making the final compound concentration 0.05 μM-1 μM). Then, 6 μL of F. YES1 Kinase Enzyme Solution was transferred to each well, pipetted 10 times to mix, and incubated at room temperature in a shaker for 10 minutes. Next, 6 μL of E. 2.5X ATP/Substrate Mixture was transferred to each well, pipetted 10 times to mix, and centrifuged at 12,000 rpm for 5 minutes. The plate was then incubated in a shaker at room temperature for 40 minutes. After that, 15 μL of ADP-Glo Reagent, dissolved at room temperature, was added to each well, pipetted 10 times, and incubated in a shaker at room temperature for 40 minutes. Finally, 30 μL of Kinase Detection Reagent, dissolved at room temperature, was added, pipetted 10 times, incubated in a shaker at room temperature for 30 minutes. Luminescence was measured using a luminescence plate reader. Then, the background value was subtracted from all measured values, and the YES1 kinase activity at compound concentrations of 1 nM, 10 nM, and 100 nM was calculated. The measured values were calculated as percentages using the average value of the negative control. Graphs were drawn using GraphPad Prism, and the enzyme activity was calculated as a percentage of YES1 kinase inhibition at compound concentrations of 1 nM, 10 nM, and 100 nM. IC50 values were obtained using Microsoft Excel.

[1] = test system: KYSE-70 esophageal cancer cell line; assay: Cell growth inhibition of KYSE-70 (Sulforhodamine B); type: cell-based; conditions: Homo sapiens; KYSE-70, 72 hours; read-out: KYSE70 GI50
Experimental: The cell line according to the present invention was selected as KYSE-70, an esophageal cancer cell line in which YES1 is amplified. The evaluation of cell growth inhibition was performed as follows.
KYSE-70 was cultured in RPMI-1640 (Capricorn) supplemented with 10% FBS (Cellgro). The cells were seeded 24 hours prior to compound treatment, into three 96-well F-bottom clear plates (Greiner), with 7,500 cells per well in 180 μL of medium. The 10 mM compound was diluted 100-fold in medium to prepare a 100 μM compound, which was then placed into a 96-well plate and further 3-fold diluted in medium to prepare a compound plate with concentrations ranging from 0.046 μM to 100 μM. 20 μL of each compound from the drug plate was added to the cell-seeded plates to achieve final concentrations of 0.0046 μM to 10 μM. At the same time, 50 μL of 33% trichloroacetic acid was injected into one plate and the plate was fixed by incubating at 4° C. This was referred to as the Do plate. Viable cells were measured 72 hours after compound treatment by injecting 50 μL of 33% trichloroacetic acid and incubating at 4° C. for more than 1 hour to fix the cells. This was referred to as the D3 plate. After the Do plate and D3 plates were washed 5 times with sterile water, 100 μL of 0.04% Sulforhodamine B solution in 1% acetic acid was added and reacted for 1 hour to stain the cells. After staining, the plates were washed 4 times with 1% acetic acid solution and completely dried. Then, the Sulforhodamine B bound to cellular proteins was completely dissolved with 10 mM Tris base solution (pH 10.5). The absorbance was measured at a wavelength of 510 nm using a microplate reader (TECAN, sunrise microplate reader). The analysis was performed using GraphPad Prism. The average absorbance of the Do plate was set to 0%, and the average absorbance of the negative control of the D3 plate was set to 100%, from which a graph was drawn and the GI50 values were calculated. Each test was performed twice.

Chain of YES1 kinase (P07947 whole entry): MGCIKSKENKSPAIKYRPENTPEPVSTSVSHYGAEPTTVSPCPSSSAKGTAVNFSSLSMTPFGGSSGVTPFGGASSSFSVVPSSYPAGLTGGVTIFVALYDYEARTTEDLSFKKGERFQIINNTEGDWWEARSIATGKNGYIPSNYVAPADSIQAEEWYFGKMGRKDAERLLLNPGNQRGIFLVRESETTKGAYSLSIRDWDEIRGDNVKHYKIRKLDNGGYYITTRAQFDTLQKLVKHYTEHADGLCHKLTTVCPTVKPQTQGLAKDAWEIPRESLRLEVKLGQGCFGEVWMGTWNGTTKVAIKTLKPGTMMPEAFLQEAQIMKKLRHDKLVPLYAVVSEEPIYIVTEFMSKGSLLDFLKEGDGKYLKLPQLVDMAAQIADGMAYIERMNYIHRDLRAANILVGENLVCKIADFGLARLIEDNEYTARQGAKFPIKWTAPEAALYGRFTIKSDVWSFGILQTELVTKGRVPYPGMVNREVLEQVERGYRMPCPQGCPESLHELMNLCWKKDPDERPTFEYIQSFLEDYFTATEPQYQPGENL

Structure (SMILES) | inhibition at 0.01 µM (YES1 kinase) | inhibition at 0.1 µM (YES1 kinase) | GI50 [1]
COc1cc(-c2cc(-c3ccc(N(C)C)cc3)n3ncnc(N)c23)ccc1NC(=O)OC(C)(C)C [Example 1, tert-butyl (4-(4-amino-7-(4-(dimethylamino)phenyl)pyrrolo[2,1-f][1,2,4]triazin-5-yl)-2-methoxyphenyl)carbamate] | 17% | 31% | 1 to 10 µM
COc1cc(-c2cc(-c3ccc(N(C)C)cc3C)n3ncnc(N)c23)ccc1NC(=O)OC(C)(C)C [Example 2, tert-butyl (4-(4-amino-7-(4-(dimethylamino)-2-methylphenyl)pyrrolo[2,1-f][1,2,4]triazin-5-yl)-2-methoxyphenyl)carbamate] | 21% | 28% | > 10 µM
COc1cc(-c2cc(-c3ccc(N(C)C)c(C)c3)n3ncnc(N)c23)ccc1NC(=O)OC(C)(C)C [Example 3, tert-butyl (4-(4-amino-7-(4-(dimethylamino)-3-methylphenyl)pyrrolo[2,1-f][1,2,4]triazin-5-yl)-2-methoxyphenyl)carbamate] | 44% | 49% | > 10 µM
COc1cc(-c2cc(-c3ccc(N(C)C)c(F)c3)n3ncnc(N)c23)ccc1NC(=O)OC(C)(C)C [Example 4, tert-butyl (4-(4-amino-7-(4-(dimethylamino)-3-fluorophenyl)pyrrolo[2,1-f][1,2,4]triazin-5-yl)-2-methoxyphenyl)carbamate] | 31% | 29% | 1 to 10 µM
COc1cc(-c2cc(N3CCC(C(C)N)CC3)n3ncnc(N)c23)ccc1NC(=O)OC(C)(C)C (stereo not drawn) [Example 81, tert-butyl (4-(4-amino-7-(4-(1-aminoethyl)piperidin-1-yl)pyrrolo[2,1-f][1,2,4]triazin-5-yl)-2-methoxyphenyl)carbamate] | – | – | 0.1 to 1 µM
CCC1(N)CCN(c2cc(-c3ccc(NC(=O)OC(C)(C)C)c(OC)c3)c3c(N)ncnn23)CC1 [Example 82, tert-butyl (4-(4-amino-7-(4-amino-4-ethylpiperidin-1-yl)pyrrolo[2,1-f][1,2,4]triazin-5-yl)-2-methoxyphenyl)carbamate] | – | – | ≤ 0.1 µM
CNC(=O)C1CCN(c2cc(-c3ccc(NC(=O)OC(C)(C)C)c(OC)c3)c3c(N)ncnn23)CC1 [Example 95, tert-butyl (4-(4-amino-7-(4-(methylcarbamoyl)piperidin-1-yl)pyrrolo[2,1-f][1,2,4]triazin-5-yl)-2-methoxyphenyl)carbamate] | – | – | 0.1 to 1 µM
COc1cc(-c2cc(N3CCC(C)(NC(C)=O)CC3)n3ncnc(N)c23)ccc1NC(=O)OC(C)(C)C [Example 96, tert-butyl (4-(4-amino-7-(4-acetamido-4-methylpiperidin-1-yl)pyrrolo[2,1-f][1,2,4]triazin-5-yl)-2-methoxyphenyl)carbamate] | – | – | > 10 µM
COc1cc(-c2cc(N3CCC(C(N)=O)CC3)n3ncnc(N)c23)ccc1NC(=O)OC(C)(C)C [Example 97, tert-butyl (4-(4-amino-7-(4-carbamoylpiperidin-1-yl)pyrrolo[2,1-f][1,2,4]triazin-5-yl)-2-methoxyphenyl)carbamate] | – | – | > 10 µM
COc1cc(-c2cc(NC[C@H]3CC[C@@H](N)C3)n3ncnc(N)c23)ccc1NC(=O)OC(C)(C)C [Example 110, tert-butyl (4-(4-amino-7-((((1S,3R)-3-aminocyclopentyl)methyl)amino)pyrrolo[2,1-f][1,2,4]triazin-5-yl)-2-methoxyphenyl)carbamate] | – | – | 0.1 to 1 µM
COc1cc(-c2cc(N[C@@H]3CC[C@H](CN)C3)n3ncnc(N)c23)ccc1NC(=O)OC(C)(C)C [Example 111, tert-butyl (4-(4-amino-7-(((1R,3S)-3-(aminomethyl)cyclopentyl)amino)pyrrolo[2,1-f][1,2,4]triazin-5-yl)-2-methoxyphenyl)carbamate] | – | – | > 10 µM
COc1cc(-c2c(Cl)c(N3CCC(N(C)C)CC3)n3ncnc(N)c23)ccc1NC(=O)OC(C)(C)C [Example 124, tert-butyl (4-(4-amino-6-chloro-7-(4-(dimethylamino)piperidin-1-yl)pyrrolo[2,1-f][1,2,4]triazin-5-yl)-2-methoxyphenyl)carbamate] | – | – | ≤ 0.1 µM
COc1cc(-c2c(C(F)(F)F)c(N3CCC(N)CC3)n3ncnc(N)c23)ccc1NC(=O)OC(C)(C)C [Example 125, tert-butyl (4-(4-amino-7-(4-aminopiperidin-1-yl)-6-(trifluoromethyl)pyrrolo[2,1-f][1,2,4]triazin-5-yl)-2-methoxyphenyl)carbamate] | – | – | 0.1 to 1 µM
COc1cc(-c2c(I)c(N3CCC(N)CC3)n3ncnc(N)c23)ccc1NC(=O)OC(C)(C)C [Example 126, tert-butyl (4-(4-amino-7-(4-aminopiperidin-1-yl)-6-iodopyrrolo[2,1-f][1,2,4]triazin-5-yl)-2-methoxyphenyl)carbamate] | – | – | 0.1 to 1 µM
CNC1CCN(CCc2c(F)c(-c3ccc(NC(=O)OC(C)(C)C)c(OC)c3)c3c(N)ncnn23)CC1 [Example 130, tert-butyl (4-(4-amino-6-fluoro-7-(2-(4-(methylamino)piperidin-1-yl)ethyl)pyrrolo[2,1-f][1,2,4]triazin-5-yl)-2-methoxyphenyl)carbamate] | – | – | ≤ 0.1 µM
CNCCC1CCN(c2c(F)c(-c3ccc(NC(=O)OC(C)(C)C)c(OC)c3)c3c(N)ncnn23)CC1 [Example 131, tert-butyl (4-(4-amino-6-fluoro-7-(4-(2-(methylamino)ethyl)piperidin-1-yl)pyrrolo[2,1-f][1,2,4]triazin-5-yl)-2-methoxyphenyl)carbamate] | – | – | ≤ 0.1 µM
COc1cc(-c2cc(N3CCC(N)CC3)n3ccnc(N)c23)ccc1NC(=O)OC(C)(C)C [Example 132, tert-butyl (4-(1-amino-6-(4-aminopiperidin-1-yl)pyrrolo[1,2-a]pyrazin-8-yl)-2-methoxyphenyl)carbamate] | – | – | 0.1 to 1 µM
CNC1CCN(c2cc(-c3ccc(NC(=O)OC(C)(C)C)c(OC)c3)c3c(N)nccn23)CC1 [Example 133, tert-butyl (4-(1-amino-6-(4-(methylamino)piperidin-1-yl)pyrrolo[1,2-a]pyrazin-8-yl)-2-methoxyphenyl)carbamate] | – | – | 0.1 to 1 µM
COc1cc(-c2cc(N3CCC(N(C)C)CC3)n3ccnc(N)c23)ccc1NC(=O)OC(C)(C)C [Example 134, tert-butyl (4-(1-amino-6-(4-(dimethylamino)piperidin-1-yl)pyrrolo[1,2-a]pyrazin-8-yl)-2-methoxyphenyl)carbamate] | – | – | ≤ 0.1 µM
